Laboratory results published in ChEMBL document CHEMBL6083264, “Superacid-Synthesized Fluorinated Diamines Act as Selective hCA IV Inhibitors” (J Med Chem, 2024).

Legend:
[1] = target: Carbonic anhydrase 1 (Homo sapiens, UniProt P00915)
Description: Inhibition of human CA-I-catalysed CO2 hydration activity incubated for 15 min by Phenol red dye based assay

[2] = target: Carbonic anhydrase 9 (Homo sapiens, UniProt Q16790)
Description: Inhibition of human CA-IX-catalysed CO2 hydration activity incubated for 15 min by Phenol red dye based assay

[3] = target: Carbonic anhydrase 12 (Homo sapiens, UniProt O43570)
Description: Inhibition of human CA-XII-catalysed CO2 hydration activity incubated for 15 min by Phenol red dye based assay

[4] = target: Carbonic anhydrase 2 (Homo sapiens, UniProt P00918)
Description: Inhibition of human CA-II-catalysed CO2 hydration activity incubated for 15 min by Phenol red dye based assay

[5] = target: T1, Carbonic anhydrase 4 (Homo sapiens, UniProt P22748)
Description: Inhibition of human CA-IV-catalysed CO2 hydration activity incubated for 15 min by Phenol red dye based assay

[6] = target: T1, Carbonic anhydrase 4; remark: listed apart in the source
Description: Inhibition of human CA-IV

Sequence of Carbonic anhydrase 1 (P00915 whole entry): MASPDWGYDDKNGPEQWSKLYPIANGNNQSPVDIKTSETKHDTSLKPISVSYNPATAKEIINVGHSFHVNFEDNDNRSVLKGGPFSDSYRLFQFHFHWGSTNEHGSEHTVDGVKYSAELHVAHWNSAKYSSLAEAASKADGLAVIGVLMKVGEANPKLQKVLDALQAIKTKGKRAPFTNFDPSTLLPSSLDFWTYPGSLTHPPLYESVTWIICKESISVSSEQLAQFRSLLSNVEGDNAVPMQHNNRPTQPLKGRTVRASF
Sequence of Carbonic anhydrase 12 (O43570 whole entry): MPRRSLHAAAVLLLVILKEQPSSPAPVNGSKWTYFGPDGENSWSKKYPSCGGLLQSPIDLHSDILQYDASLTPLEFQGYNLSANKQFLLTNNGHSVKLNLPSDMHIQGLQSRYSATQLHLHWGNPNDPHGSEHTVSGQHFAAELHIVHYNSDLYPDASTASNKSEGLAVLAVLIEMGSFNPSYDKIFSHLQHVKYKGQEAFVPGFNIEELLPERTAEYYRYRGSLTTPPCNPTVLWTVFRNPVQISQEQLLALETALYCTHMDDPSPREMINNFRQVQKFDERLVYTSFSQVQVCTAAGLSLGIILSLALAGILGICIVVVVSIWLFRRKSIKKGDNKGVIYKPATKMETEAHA
T1 sequence (P22748 whole entry): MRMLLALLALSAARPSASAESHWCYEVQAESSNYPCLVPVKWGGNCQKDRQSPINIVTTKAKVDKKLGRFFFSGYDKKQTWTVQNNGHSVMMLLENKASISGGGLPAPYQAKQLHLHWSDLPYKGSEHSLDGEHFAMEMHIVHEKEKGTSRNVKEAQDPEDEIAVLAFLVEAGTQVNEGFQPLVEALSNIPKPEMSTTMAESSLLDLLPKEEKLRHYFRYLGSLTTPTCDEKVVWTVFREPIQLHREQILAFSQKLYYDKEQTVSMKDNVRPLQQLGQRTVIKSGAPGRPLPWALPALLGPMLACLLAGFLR

SMILES	Ki [1] [µM]	Ki [2] [µM]	Ki [3] [µM]	Ki [4] [µM]	Ki [5] [µM]	IC50 [6] [µM]
CCCNCCCCN	> 100	3.08	28.6	> 100	0.093	–
CCCNCCCN	> 100	2.95	52.7	> 100	0.095	–
CC(F)(F)CNCCCCN1C(=O)c2ccccc2C1=O	> 100	–	–	–	> 100	–
CC(F)(F)CNCCCN1C(=O)c2ccccc2C1=O	> 100	> 100	> 100	–	–	–
CN(CC(F)CN)S(=O)(=O)c1ccc([N+](=O)[O-])cc1 (centres undefined)	> 100	89	3.65	0.79	20.1	–
CC(F)CNCCCCN1C(=O)c2ccccc2C1=O (centres undefined)	0.25	0.026	0.006	0.012	0.074	–
CC(F)CNCCCN1C(=O)c2ccccc2C1=O (centres undefined)	> 100	> 100	> 100	4.26	0.13	–
CC(F)(F)CNCCCN	> 100	–	> 100	–	–	–
CC(F)CN(CCCN)S(=O)(=O)c1ccc([N+](=O)[O-])cc1 (centres undefined)	> 100	> 100	5.2	0.72	51.2	–
O=[N+]([O-])c1ccc(S(=O)(=O)NCC(F)CCl)cc1 (centres undefined)	3.02	20	0.68	0.026	> 100	–
CC(F)(F)CN(CCCCN1C(=O)c2ccccc2C1=O)S(=O)(=O)c1ccc([N+](=O)[O-])cc1	> 100	> 100	–	> 100	> 100	–
CC(=O)N1N=C(c2ccc(S(N)(=O)=O)cc2)CC1c1c(Cl)cccc1Cl (centres undefined)	–	–	–	–	0.0177	–
CC(F)(F)CN(CCCN1C(=O)c2ccccc2C1=O)S(=O)(=O)c1ccc([N+](=O)[O-])cc1	> 100	> 100	–	–	> 100	–
CC(F)CNCCCN (centres undefined)	> 100	1.44	> 100	36.9	0.034	–
CC(F)CNS(=O)(=O)c1ccc([N+](=O)[O-])cc1 (centres undefined)	4.5	2.2	4.2	2.4	0.071	0.071
CC(F)(F)CNCCCCN	> 100	–	> 100	> 100	–	–
CC(F)CNCCCCN (centres undefined)	> 100	0.38	> 100	63.7	0.028	–
O=C1c2ccccc2C(=O)N1CC(F)CNS(=O)(=O)c1ccc([N+](=O)[O-])cc1 (centres undefined)	> 100	> 100	> 100	0.076	> 100	–
CN(CC(F)CCl)S(=O)(=O)c1ccc([N+](=O)[O-])cc1 (centres undefined)	> 100	> 100	> 100	> 100	> 100	–
CC(F)CN(CCCN1C(=O)c2ccccc2C1=O)S(=O)(=O)c1ccc([N+](=O)[O-])cc1 (centres undefined)	> 100	> 100	7	78.4	> 100	–
CC(F)CN(CCCCN1C(=O)c2ccccc2C1=O)S(=O)(=O)c1ccc([N+](=O)[O-])cc1 (centres undefined)	> 100	> 100	0.64	34	> 100	–
CN(CC(F)CN1C(=O)c2ccccc2C1=O)S(=O)(=O)c1ccc([N+](=O)[O-])cc1 (centres undefined)	> 100	> 100	> 100	> 100	> 100	–
